Laboratory results published in ChEMBL document CHEMBL3886578, “Pharmaceutical composition for treating diabetes” (2016).

Molecular target: T1, Glycogen [starch] synthase, muscle (Homo sapiens, UniProt P13807)
T1 sequence (P13807 whole entry): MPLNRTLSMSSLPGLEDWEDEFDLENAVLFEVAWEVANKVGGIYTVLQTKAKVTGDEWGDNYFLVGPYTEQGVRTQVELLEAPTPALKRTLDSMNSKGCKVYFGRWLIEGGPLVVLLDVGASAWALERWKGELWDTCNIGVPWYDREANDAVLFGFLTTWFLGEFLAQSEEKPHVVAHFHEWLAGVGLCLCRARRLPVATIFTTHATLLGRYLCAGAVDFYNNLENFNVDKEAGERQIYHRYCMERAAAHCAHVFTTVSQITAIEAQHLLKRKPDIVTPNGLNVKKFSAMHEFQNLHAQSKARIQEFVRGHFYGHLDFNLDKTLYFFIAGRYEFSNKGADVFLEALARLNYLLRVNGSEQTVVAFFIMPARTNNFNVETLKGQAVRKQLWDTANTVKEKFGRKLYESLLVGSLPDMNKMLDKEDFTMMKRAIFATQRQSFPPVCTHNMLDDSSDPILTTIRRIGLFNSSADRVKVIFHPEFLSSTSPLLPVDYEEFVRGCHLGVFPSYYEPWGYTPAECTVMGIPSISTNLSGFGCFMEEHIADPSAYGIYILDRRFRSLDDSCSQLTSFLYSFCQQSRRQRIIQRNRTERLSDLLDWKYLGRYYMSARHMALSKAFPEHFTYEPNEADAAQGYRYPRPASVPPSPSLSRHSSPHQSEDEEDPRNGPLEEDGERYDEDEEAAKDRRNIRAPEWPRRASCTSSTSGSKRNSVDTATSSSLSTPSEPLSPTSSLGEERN
Assay: Glycogen Synthase Activity Assay: To a polystyrene 96-well plate, a solution containing 30 mM glycylglycine (pH 7.3), 40 mM KCl, 20 mM MgCl2, 9.2% DMSO containing one of the test compounds at various concentrations, and 10 mM glucose-6-phosphate (Sigma-Aldrich Corporation, G7879) was added by 12 uL/well. Next, a substrate solution containing 30 mM glycylglycine (pH 7.3), 4.3 mg/mL of glycogen (Sigma-Aldrich Corporation, G8876), 21.6 mM UDP-glucose (Sigma-Aldrich Corporation, U4625), 21.6 mM phosphoenolpyruvic acid (Sigma-Aldrich Corporation, P0564), and 4.05 mM NADH (Sigma-Aldrich Corporation, N8129) was added by 18 uL/well. Further, an enzyme solution containing 50 mM Tris-HCl (pH 8.0), 27 mM DTT (Nacalai Tesque, Inc., 14128-04), 0.2 mg/mL of bovine serum albumin, 0.17 mg/mL of the glycogen synthase, 1.5 uL of a pyruvate kinase/lactate dehydrogenase solution (Sigma-Aldrich Corporation, P0294) was added by 18 uL/well to prepare a reaction solution. After the reaction solution was incubated (at 30° C. for 25 minutes for Examples 1 to 10, at 37° C. for 20 minutes for Examples 11 to 75), the absorbance at 340 nm was measured using Benchmark Plus (Bio-Rad Laboratories, Inc.).

| SMILES | EC50 [nM] |
| --- | --- |
| O=C(O)[C@@H]1CCCN1C(=O)c1cccc(COc2ccc(-c3cc(F)c(F)c4c3OCC=C4)cc2)c1 | 100 |
| O=C(O)[C@@H]1CCCN1C(=O)c1cccc(COc2ccc(-c3cc(F)cc4c3OCC=C4)cc2)c1 | 780 |
